In paper PMC8469489, “Effect of Lactic Acid Bacteria on the Pharmacokinetics and Metabolism of Ginsenosides in Mice” (Pharmaceutics, 2021):

Columns and labels:
[1] = Pharmacokinetics of ginsenosides after single oral RGE with or without amoxicillin treatment; assay type: in vivo, mice; conditions: single oral RGE 2 g/kg; for AUC: AUC 0 to 48 h
Experimental: Male ICR mice (7-weeks-year-old, 30–35 g) were purchased from Samtako Co. (Osan, Kyunggi-do, Korea). Animals were acclimatized for 1 week in an animal facility at Kyungpook National University. Food and water were available ad libitum.
Before blood sampling, mice were anesthetized using isoflurane (isoflurane vaporizer to 2% with oxygen flow at 0.8 L/min) for 5 min.

[2] = tested on: lactic acid bacteria (LAB); assay: Incubation of single ginsenoside with LAB (formation rate of metabolite ginsenoside); assay type: in vitro ADME; conditions: 7 days, 37 °C, MRS broth
Experimental: To compare the involvement of LAB on individual ginsenoside, an aliquot (10 μL) of each ginsenoside stock solution (10 mM in methanol) was mixed with autoclaved MRS broth (550 mg/10 mL in distilled water) and added 2 g of LAB (contained 1 billion CFU). Then, the mixture was incubated for 7 days in a shaking incubator at 37 °C and 300 rpm. For the analysis of ginsenosides, 0.2 mL aliquot of incubation mixture was collected every 24 h for 7 days. The incubation medium was diluted 100-fold with distilled water and stored at −80 °C. For the ginsenoside analysis, 200 μL of an IS solution (0.05 ng/mL berberine in methanol) was added to 30 μL of 100-fold diluted samples.

[3] = parameters: method as in PMID 32023909; conditions: cited from earlier work
[4] = tested on: lactic acid bacteria (LAB); assay: In vitro RGE fermentation with LAB; conditions: 7 days incubation
[5] = Recovery of ginsenosides from urine and feces for 48 h after RGE, amoxicillin vs control; conditions: for Fecal recovery, change by the amoxicillin treatment: feces 48 h after single oral RGE 2 g/kg, vs control; for Ginsenosides identified in urine: urine 48 h after single oral RGE 2 g/kg
Experimental: Aliquots (200 μL) of an IS (0.05 ng/mL berberine in methanol) were added to 30 μL of plasma or urine samples. Aliquots (600 μL) of an IS methanol solution containing 0.05 ng/mL berberine were added to 100 μL of 10% feces homogenate samples. […] After centrifugation, 200 μL of the supernatant was transferred to a clean tube and dried under a nitrogen stream at 40 °C. The residue was reconstituted using 100 μL of 70% methanol supplemented with 0.1% formic acid, and a 10-μL aliquot was injected into the LC–MS/MS system.

[6] = Recovery of ginsenosides from urine and feces for 48 h after RGE, amoxicillin with or without LAB; conditions: for Fecal recovery, change by LAB treatment: feces 48 h after single oral RGE 2 g/kg, Amoxicillin + LAB vs amoxicillin
Experimental: (§1) Mice received amoxicillin (n = 12, 20 mg/kg, dissolved in water at 2 mL/kg, twice daily) for 3 days via oral gavage. From the 4th day, mice from the LAB + amoxicillin treatment group received LAB (2 g/kg suspended in water at 2 mL/kg, once daily) for 7 days via oral gavage. Mice from the amoxicillin treatment group received water (2 mL/kg, once daily) for 7 days via oral gavage.

[7] = Pharmacokinetics of ginsenosides after single oral RGE after amoxicillin with or without repeated LAB treatment; conditions: single oral RGE 2 g/kg; for AUC: AUC 0 to 48 h
Experimental: as §1
Blood sampling was performed using a sparse sampling method via the right or left retro-orbital vein under isoflurane anesthesia at 0, 2, 4, and 8 h after the RGE administration through the heparinized capillary tube. […] After centrifugation of the blood samples at 10,000× g for 1 min, 30 μL aliquots of plasma were stored at −80 °C until the analysis of the ginsenosides. Subsequent protocols were identical to the amoxicillin treated group.
Pharmacokinetic parameters were calculated using WinNonlin (version 5.1, Pharsight, Mountain View, CA, USA) by a non-compartmental analysis.

[8] = Amoxicillin 3 days pretreatment
[9] = Amoxicillin 3 days then water 7 days
[10] = Amoxicillin + LAB (LAB 2 g/kg once daily 7 days)

Cmax [1, 8] | Half-Life [1, 8] | MRT [1, 8] | Tmax [1, 8] | AUC [1, 8] | Cmax ([1]; Control, plasma) | Half-Life ([1]; Control, plasma) | MRT ([1]; Control, plasma) | Tmax ([1]; Control, plasma) | AUC ([1]; Control, plasma, n = 3) | Plasma concentrations, amoxicillin treatment compared to the control group [1] | Alteration of ginsenoside by fermentation of RGE with LAB [4] | Fecal recovery, change by the amoxicillin treatment [5] | Ginsenosides identified in urine [5] | Fecal recovery, change by LAB treatment [6] | Cmax [7, 9] | Detection in mouse plasma following repeated LAB administration in addition to amoxicillin [7] | Plasma exposure / pharmacokinetic parameters, LAB treatment compared with amoxicillin group [7] | Compound | Metabolite formation on incubation of single ginsenoside with LAB [2] | Ratio of liver AUC to plasma AUC [3] | further results
0.0103 ± 0.0046 µg/mL | 25.1 ± 2.7 h | 21.4 ± 1.6 h | 13.3 ± 9.2 h | 0.3915 ± 0.192 µg·h/mL | 0.0125 ± 0.0021 µg/mL | 24.6 ± 6.7 h | 19.4 ± 1.6 h | 8.0 ± 0.0 h | 0.3614 ± 0.0743 µg·h/mL | not significantly affected | most significant decrease | increased | identified in urine | significantly decreased | 0.0109 ± 0.0052 µg/mL | detected | not different | CC(C)=CCC[C@](C)(O[C@@H]1O[C@H](CO[C@@H]2OC[C@H](O)[C@H](O)[C@H]2O)[C@@H](O)[C@H](O)[C@H]1O)[C@H]1CC[C@]2(C)[C@@H]1[C@H](O)C[C@@H]1[C@@]3(C)CC[C@H](O[C@@H]4O[C@H](CO)[C@@H](O)[C@H](O)[C@H]4O[C@@H]4O[C@H](CO)[C@@H](O)[C@H](O)[C@H]4O)C(C)(C)[C@@H]3CC[C@]12C [GRb2] | produced GRg3 with the highest formation rate | < 0.2 | Half-Life [7, 9]: 19.2 ± 2.3 h; MRT [7, 9]: 20.2 ± 1.7 h; Tmax [7, 9]: 4.0 ± 0.0 h; AUC [7, 9]: 0.3859 ± 0.2436 µg·h/mL; AUC [7, 10]: 0.4192 ± 0.1086 µg·h/mL; Cmax ([7]; Amoxicillin + LAB): 0.0151 ± 0.0034 µg/mL; Half-Life ([7]; Amoxicillin + LAB): 21.6 ± 1.7 h; MRT ([7]; Amoxicillin + LAB): 18.1 ± 0.9 h; Tmax ([7]; Amoxicillin + LAB): 8.0 ± 0.0 h
0.0032 ± 0.0016 µg/mL | 29.1 ± 8.6 h | 24.0 ± 2.1 h | 24.7 ± 23.0 h | 0.1324 ± 0.077 µg·h/mL | 0.0086 ± 0.0018 µg/mL | 24.2 ± 3.1 h | 21.3 ± 3.0 h | 13.3 ± 9.2 h | 0.2788 ± 0.117 µg·h/mL | decreased | gradual decrease | – | identified in urine | significantly decreased | 0.0065 ± 0.0051 µg/mL | detected | increased | CC(C)=CCC[C@](C)(O[C@@H]1O[C@H](CO)[C@@H](O)[C@H](O)[C@H]1O)[C@H]1CC[C@]2(C)[C@@H]1[C@H](O)C[C@@H]1[C@@]3(C)CC[C@H](O[C@@H]4O[C@H](CO)[C@@H](O)[C@H](O)[C@H]4O[C@@H]4O[C@H](CO)[C@@H](O)[C@H](O)[C@H]4O)C(C)(C)[C@@H]3CC[C@]12C [GRd] | produced GRg3 with the highest formation rate | < 0.2 | Urinary excretion, Amoxicillin + LAB compared with amoxicillin group ([6]; urine 48 h after single oral RGE 2 g/kg): increased; Half-Life [7, 9]: 29.2 ± 2.7 h; MRT [7, 9]: 24.1 ± 3.9 h; Tmax [7, 9]: 5.3 ± 2.3 h; AUC [7, 9]: 0.2131 ± 0.1513 µg·h/mL; AUC [7, 10]: 0.6181 ± 0.3856 µg·h/mL; Cmax ([7]; Amoxicillin + LAB): 0.0184 ± 0.0069 µg/mL; Half-Life ([7]; Amoxicillin + LAB): 25.5 ± 3.8 h; MRT ([7]; Amoxicillin + LAB): 20.6 ± 3.7 h; Tmax ([7]; Amoxicillin + LAB): 16.0 ± 9.2 h; Plasma exposure / pharmacokinetic parameters, LAB treatment compared with amoxicillin group ([7]; listed as Rd): significantly increased
0.0148 ± 0.0066 µg/mL | 25.1 ± 9.9 h | 21.9 ± 1.5 h | 13.3 ± 9.2 h | 0.5717 ± 0.276 µg·h/mL | 0.0172 ± 0.0031 µg/mL | 22.8 ± 6.7 h | 19.9 ± 1.7 h | 8.0 ± 0.0 h | 0.5086 ± 0.109 µg·h/mL | not significantly affected | most significant decrease | increased | identified in urine | significantly decreased | 0.0132 ± 0.0066 µg/mL | detected | not different | CC(C)=CCC[C@](C)(O[C@@H]1O[C@H](CO[C@@H]2O[C@@H](CO)[C@H](O)[C@H]2O)[C@@H](O)[C@H](O)[C@H]1O)[C@H]1CC[C@]2(C)[C@@H]1[C@H](O)C[C@@H]1[C@@]3(C)CC[C@H](O[C@@H]4O[C@H](CO)[C@@H](O)[C@H](O)[C@H]4O[C@@H]4O[C@H](CO)[C@@H](O)[C@H](O)[C@H]4O)C(C)(C)[C@@H]3CC[C@]12C [GRc] | produced GRg3 with the highest formation rate | < 0.2 | Half-Life [7, 9]: 20.2 ± 1.8 h; MRT [7, 9]: 20.6 ± 1.2 h; Tmax [7, 9]: 4.7 ± 3.1 h; AUC [7, 9]: 0.4482 ± 0.2681 µg·h/mL; AUC [7, 10]: 0.5244 ± 0.1466 µg·h/mL; Cmax ([7]; Amoxicillin + LAB): 0.0183 ± 0.0043 µg/mL; Half-Life ([7]; Amoxicillin + LAB): 24.1 ± 2.4 h; MRT ([7]; Amoxicillin + LAB): 19.0 ± 1.3 h; Tmax ([7]; Amoxicillin + LAB): 8.0 ± 0.0 h

Compound | Cmax [1, 8] | Half-Life [1, 8] | MRT [1, 8] | Tmax [1, 8] | AUC [1, 8] | Cmax ([1]; Control, plasma) | Half-Life ([1]; Control, plasma) | MRT ([1]; Control, plasma) | Tmax ([1]; Control, plasma) | AUC ([1]; Control, plasma, n = 3) | Plasma concentrations, amoxicillin treatment compared to the control group [1] | Alteration of ginsenoside by fermentation of RGE with LAB [4] | Fecal recovery, change by the amoxicillin treatment [5] | Ginsenosides identified in urine [5] | Fecal recovery, change by LAB treatment [6] | Cmax [7, 9] | Detection in mouse plasma following repeated LAB administration in addition to amoxicillin [7] | Plasma exposure / pharmacokinetic parameters, LAB treatment compared with amoxicillin group [7] | Metabolite formation on incubation of single ginsenoside with LAB [2] | Ratio of liver AUC to plasma AUC [3] | further results
CC(C)=CCC[C@](C)(O[C@@H]1O[C@H](CO[C@@H]2O[C@H](CO)[C@@H](O)[C@H](O)[C@H]2O)[C@@H](O)[C@H](O)[C@H]1O)[C@H]1CC[C@]2(C)[C@@H]1[C@H](O)C[C@@H]1[C@@]3(C)CC[C@H](O[C@@H]4O[C@H](CO)[C@@H](O)[C@H](O)[C@H]4O[C@@H]4O[C@H](CO)[C@@H](O)[C@H](O)[C@H]4O)C(C)(C)[C@@H]3CC[C@]12C [GRb1, 20(S)-ginsenosides Rb1] | – | – | – | – | – | – | – | – | – | – | not significantly affected | most significant decrease | increased | identified in urine | significantly decreased | – | detected | not different | – | < 0.2 | AUC ([1]; male, ICR, mouse, plasma, po, 2 g/kg, Amoxicillin 3 days pretreatment, read-out: AUC): 0.926 ± 0.439 µg·h/mL; Cmax ([1]; male, ICR, mouse, plasma, po, 2 g/kg, Amoxicillin 3 days pretreatment, read-out: Cmax): 0.0282 ± 0.0129 µg/mL; Half-Life ([1]; male, ICR, mouse, plasma, po, 2 g/kg, Amoxicillin 3 days pretreatment, read-out: Half-life (converted)): 21.7 ± 3.6 h; MRT ([1]; male, ICR, mouse, plasma, po, 2 g/kg, Amoxicillin 3 days pretreatment, read-out: MRT): 19.3 ± 1.4 h; AUC ([1]; male, ICR, mouse, plasma, po, 2 g/kg, Control, plasma, n = 3, read-out: AUC): 0.896 ± 0.0813 µg·h/mL; Cmax ([1]; male, ICR, mouse, plasma, po, 2 g/kg, Control, plasma, read-out: Cmax): 0.0413 ± 0.0143 µg/mL; Half-Life ([1]; male, ICR, mouse, plasma, po, 2 g/kg, Control, plasma, read-out: Half-Life (converted)): 25.9 ± 4.7 h; MRT ([1]; male, ICR, mouse, plasma, po, 2 g/kg, Control, plasma, read-out: MRT): 16.3 ± 2.7 h; Tmax ([1]; male, ICR, mouse, plasma, Amoxicillin 3 days pretreatment, read-out: Tmax): 8 h; AUC ([7]; male, ICR, mouse, plasma, po, 2 g/kg, AUC, Amoxicillin 3 days then water 7 days): 0.752 ± 0.478 µg·h/mL; AUC ([7]; male, ICR, mouse, plasma, po, 2 g/kg, AUC, Amoxicillin + LAB (LAB 2 g/kg once daily 7 days)): 0.622 ± 0.164 µg·h/mL; Cmax ([7]; male, ICR, mouse, plasma, po, 2 g/kg, Cmax, Amoxicillin 3 days then water 7 days): 0.0237 ± 0.0116 µg/mL; Cmax ([7]; male, ICR, mouse, plasma, po, 2 g/kg, Cmax, Amoxicillin + LAB): 0.0262 ± 0.0046 µg/mL; Half-Life ([7]; male, ICR, mouse, plasma, po, 2 g/kg, Half-Life, Amoxicillin 3 days then water 7 days): 20.1 ± 2.2 h; Half-Life ([7]; male, ICR, mouse, plasma, po, 2 g/kg, Half-life, Amoxicillin + LAB): 16.2 ± 0.9 h; MRT ([7]; male, ICR, mouse, plasma, po, 2 g/kg, MRT, Amoxicillin 3 days then water 7 days): 18.6 ± 1.6 h; MRT ([7]; male, ICR, mouse, plasma, po, 2 g/kg, MRT, Amoxicillin + LAB): 16.9 ± 1 h; Tmax ([7]; male, ICR, mouse, plasma, po, 2 g/kg, Tmax, Amoxicillin 3 days then water 7 days): 3.3 ± 1.2 h; Tmax ([7]; male, ICR, mouse, plasma, po, 2 g/kg, Tmax, Amoxicillin + LAB): 4.7 ± 3.1 h
